Test systems include UACC-62 melanoma; K-562 leukemia; NCI/ADR-RES ovarian; ACHN renal; HCT-116 colon; SN12C renal; SF-539 CNS; NCI-H23 lung; HT29 colon; OVCAR-8 ovarian.
What all share (assay): inhibition of tumour cell growth, NCI panel, 48 h

Molecules are shown by their SMILES. Where “and” joins values, the source holds several entries; their conditions need not be identical. Identical values can stand only once.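 Where inhibition never reached the appropriate level, the endpoint shown equals the highest concentration tested. Otherwise, values were interpolated linearly from a five-concentration, 48-hour dose response in 96-well plates. GI50: concentration for 50% inhibition of growth. At the TGI there is no net growth.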

As for `CC1=C(SCCC(=O)OC(C[Se]C2=C(C)C(=O)c3ccccc3C2=O)C(=O)NCCCCCC(=O)OCc2ccccc2)C(=O)c2ccccc2C1=O` (stereo unspecified), the GI50 in the assay on UACC-62 melanoma is 8.04 µM; in the assay on K-562 leukemia it was 3.04 µM; in the assay with NCI/ADR-RES ovarian, 4.59 µM; with ACHN renal, 12.1 µM; in the assay on HCT-116 colon, 1.99 µM; in the assay on SN12C renal, 4.63 µM. In addition, the GI50 with SF-539 CNS was 4.49 µM; in the assay with NCI-H23 lung, 2.76 µM; in the assay on HT29 colon, 3.56 µM; in the assay with OVCAR-8 ovarian, 4.16 µM. The TGI in the assay with UACC-62 melanoma is 20.9 µM; in the assay with K-562 leukemia it was > 100 µM; in the assay on NCI/ADR-RES ovarian, 18.3 µM; in the assay on ACHN renal, 27.6 µM; with HCT-116 colon it was 4.6 µM; in the assay with SN12C renal it was 16.7 µM. Besides, the TGI in the assay with SF-539 CNS stood at 15.3 µM; in the assay on NCI-H23 lung, 7.84 µM; in the assay with HT29 colon, 13.3 µM; in the assay with OVCAR-8 ovarian, 15 µM.

As for `CC(C)(C)C1CCC2c3c([nH]c4ccccc34)C3C(=O)N(c4ccc(Cl)cc4)C(=O)C3C2C1` (stereo unspecified), the GI50 in the assay on UACC-62 melanoma is > 100 µM; in the assay on K-562 leukemia, 21.1 µM and > 10 µM; with NCI/ADR-RES ovarian, 51.3 µM and > 10 µM; in the assay on ACHN renal, 76.5 µM and > 10 µM; with HCT-116 colon, 65.3 µM and > 10 µM; in the assay with SN12C renal it was 37.4 µM and > 10 µM. Moreover, the GI50 in the assay with SF-539 CNS is > 100 µM; with NCI-H23 lung, 58.4 µM and > 10 µM; in the assay with HT29 colon, 34.5 µM and > 10 µM; in the assay on OVCAR-8 ovarian, > 100 µM. Moreover, the TGI in the assay with UACC-62 melanoma is > 100 µM; with K-562 leukemia it was 46.1 µM and > 10 µM; with NCI/ADR-RES ovarian, > 100 µM; with ACHN renal, > 100 µM; in the assay with HCT-116 colon, > 100 µM; in the assay on SN12C renal it was > 100 µM. In addition, the TGI in the assay on SF-539 CNS, in the assay with NCI-H23 lung, in the assay on HT29 colon and in the assay on OVCAR-8 ovarian was > 100 µM each time.

`COc1cc(/C=N/Nc2ncnc3c2cnn3-c2ccccc2)ccc1O`: the GI50 is 15.6 µM in the assay on UACC-62 melanoma; 2.85 µM with K-562 leukemia; > 20.9 µM in the assay with NCI/ADR-RES ovarian; 7.93 µM in the assay on ACHN renal; 8.18 µM in the assay on HCT-116 colon; > 25 µM in the assay with SN12C renal. Also, the GI50 is 8.84 µM in the assay with SF-539 CNS, > 25 µM with NCI-H23 lung, 8.18 µM in the assay on HT29 colon and > 14.7 µM in the assay with OVCAR-8 ovarian. For the same compound, the TGI in the assay on UACC-62 melanoma, in the assay on K-562 leukemia, in the assay with NCI/ADR-RES ovarian, in the assay with ACHN renal, with HCT-116 colon and in the assay with SN12C renal was > 25 µM each time. Also, the TGI with SF-539 CNS was > 25 µM; with NCI-H23 lung, > 25 µM; with HT29 colon, > 24.1 µM; with OVCAR-8 ovarian, > 25 µM.

Consider `O=C(CCCN1CCC(O)(c2ccc(Cl)cc2)CC1)c1ccc(F)cc1`, for which the TGI in the assay on UACC-62 melanoma was 21.4 µM; with K-562 leukemia, > 100 µM; in the assay on NCI/ADR-RES ovarian, 88.8 µM; in the assay on ACHN renal, > 100 µM; in the assay on HCT-116 colon, 33.6 µM; in the assay with SN12C renal it was > 100 µM. Besides, the TGI is 60.3 µM in the assay on SF-539 CNS, 84.1 µM in the assay with NCI-H23 lung, > 100 µM with HT29 colon and > 100 µM with OVCAR-8 ovarian.

On to `COc1ccc(-c2nc(-c3ccc(C)cc3)cn3ccnc23)cc1`, for which the GI50 with UACC-62 melanoma was 4.39 µM; in the assay on K-562 leukemia it was 0.815 µM; in the assay on NCI/ADR-RES ovarian, 2.16 µM; in the assay with ACHN renal, 7.58 µM; in the assay with HCT-116 colon it was 2.61 µM; in the assay on SN12C renal it was 6.12 µM. Besides, the values for the GI50 in the assay with SF-539 CNS, with NCI-H23 lung and with OVCAR-8 ovarian were 5.73 µM, > 50 µM and > 5 µM, respectively. For the same compound, the TGI is > 50 µM in the assay with UACC-62 melanoma; 3.92 µM in the assay on K-562 leukemia; > 50 µM with NCI/ADR-RES ovarian; > 50 µM with ACHN renal; > 50 µM with HCT-116 colon; > 50 µM in the assay with SN12C renal. Further, the TGI with SF-539 CNS was 31 µM; in the assay with NCI-H23 lung, > 50 µM; with OVCAR-8 ovarian, > 5 µM.

As for `CCC(C)Nc1ccc(N)cc1` (stereo unspecified), the GI50 in the assay with UACC-62 melanoma was 2.91 µM; in the assay with K-562 leukemia, 2.36 µM; in the assay with NCI/ADR-RES ovarian, 10.6 µM; in the assay with ACHN renal, 3.73 µM; in the assay on HCT-116 colon it was 2.73 µM; with SN12C renal, 2.95 µM. Moreover, the GI50 is 5.16 µM with SF-539 CNS, 2.89 µM with NCI-H23 lung, 3.16 µM in the assay with HT29 colon and 4.19 µM in the assay with OVCAR-8 ovarian. The TGI was found to be 12.5 µM with UACC-62 melanoma; 10.4 µM with K-562 leukemia; 28 µM in the assay with NCI/ADR-RES ovarian; 13.3 µM with ACHN renal; 8.73 µM in the assay on HCT-116 colon; 12.9 µM in the assay on SN12C renal. The TGI in the assay on SF-539 CNS was 17.1 µM; with NCI-H23 lung, 8.89 µM; in the assay with HT29 colon it was 10.7 µM; with OVCAR-8 ovarian, 22.2 µM.

On to `CCOC(=O)Oc1cc2c(c(OC)c1OC)-c1ccc(OC)c(=O)cc1C(NC(C)=O)CC2` (stereo unspecified), for which the TGI in the assay with UACC-62 melanoma is 25.2 µM; in the assay on K-562 leukemia, > 81.3 µM; in the assay with NCI/ADR-RES ovarian, > 57.9 µM; with ACHN renal, > 100 µM; in the assay with HCT-116 colon, 1.85 µM; with SN12C renal, > 100 µM. Besides, the TGI in the assay with SF-539 CNS was 0.232 µM; in the assay on NCI-H23 lung, 8.82 µM; with HT29 colon it was 13.2 µM; in the assay with OVCAR-8 ovarian, 19.7 µM.

With `COc1ccc(/C(COc2ccc3oc(-c4ccccc4)cc(=O)c3c2)=N\O)cc1`, the GI50 with UACC-62 melanoma is 0.0338 µM; in the assay with NCI/ADR-RES ovarian, 0.11 µM; in the assay with ACHN renal, 0.331 µM; in the assay on HCT-116 colon, < 0.005 µM; in the assay on SN12C renal it was 0.231 µM; in the assay with SF-539 CNS, 1.25 µM. The GI50 with NCI-H23 lung is 0.189 µM; with HT29 colon it was 0.783 µM; with OVCAR-8 ovarian, 0.209 µM. For the same compound, the TGI with UACC-62 melanoma is 2.22 µM; in the assay on K-562 leukemia, > 33.3 µM; in the assay on NCI/ADR-RES ovarian, 5.51 µM; in the assay with ACHN renal, 20 µM; in the assay on HCT-116 colon, 9.36 µM; in the assay on SN12C renal, 4.54 µM. The values for the TGI in the assay with SF-539 CNS, with NCI-H23 lung and with HT29 colon were 2.72 µM, 9.75 µM and > 50 µM, respectively.
